Source: patent US10597388B2, “Pyridazinone herbicides” (FMC CORPORATION, priority 2014, dated 2020)
Where two headings read alike, the source gives them in different places.

What was measured:
[1] = tested on: pigweed (Amaranthus retroflexus); experiment: Test A greenhouse herbicide test, pre- and postemergence; assay type: in vivo; settings: Amaranthus retroflexus, 240 h, 1000 g ai/ha, 0 to 100 scale
Method in brief: (§1)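 Seeds sown in loam–sand blend got a preemergence directed soil spray of compound in non-phytotoxic solvent with surfactant. Postemergence treatment was given at 2–10 cm, one- to two-leaf stage. After ~10 d in greenhouse, injury was rated visually vs untreated controls, 0 (no effect) to 100 (complete control).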

[2] = tested on: foxtail, giant (giant foxtail, Setaria faberii); experiment: as above; assay type: in vivo; settings: Setaria faberi, 240 h, 1000 g ai/ha, 0 to 100 scale
Method in brief: as §1

[3] = tested on: barnyardgrass (Echinochloa crus-galli); experiment: as above; assay type: in vivo; settings: Echinochloa crus-galli, 240 h, 1000 g ai/ha, 0 to 100 scale
Method in brief: as §1

[4] = tested on: crabgrass, large (large crabgrass, Digitaria sanguinalis); experiment: as above; assay type: in vivo; settings: 240 h, 1000 g ai/ha, 0 to 100 scale
Method in brief: as §1

[5] = tested on: momingglory (Ipomoea spp.); experiment: as above; assay type: in vivo; settings: 240 h, 1000 g ai/ha, 0 to 100 scale
Method in brief: as §1

[6] = tested on: velvetleaf (Abutilon theophrasti); experiment: as above; assay type: in vivo; settings: 240 h, 1000 g ai/ha, 0 to 100 scale
Method in brief: as §1

[7] = tested on: wheat (Triticum aestivum); experiment: as above; assay type: in vivo; settings: Triticum aestivum, 240 h, 1000 g ai/ha, 0 to 100 scale
Method in brief: as §1

[8] = tested on: corn (Zea mays); experiment: as above; assay type: in vivo; settings: Zea mays, 240 h, 1000 g ai/ha, 0 to 100 scale
Method in brief: as §1

[9] = tested on: sedge, umbrella (small-flower umbrella sedge, Cyperus difformis); experiment: Test B flooded paddy test; assay type: in vivo; settings: Cyperus difformis, 360 h; 250 g ai/ha, Flood; visual rating on scale of 0 to 100 where 0 is no effect and 100 is complete control; 13 to 15 d after treatment; read-out: Plant response rating, Sedge, Umbrella
Method in brief: (§2)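 Plants at the 2-leaf stage were flooded to 3 cm above soil, and test compounds were applied directly into the paddy water, which was held at that depth throughout. After 13 to 15 d in a greenhouse, injury was rated visually against untreated controls on a 0–100 scale (0 no effect, 100 complete control).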

[10] = tested on: ducksalad (Heteranthera limosa); experiment: Test B flooded paddy test; assay type: in vivo; settings: Heteranthera limosa, 360 h; 250 g ai/ha, Flood; visual rating on scale of 0 to 100 where 0 is no effect and 100 is complete control; 13 to 15 d after treatment; read-out: Plant response rating, Ducksalad
Method in brief: as §2

[11] = tested on: barnyardgrass (Echinochloa crus-galli); experiment: Test B flooded paddy test; assay type: in vivo; settings: Echinochloa crus-galli, 360 h; 250 g ai/ha, Flood; visual rating on scale of 0 to 100 where 0 is no effect and 100 is complete control; 13 to 15 d after treatment; read-out: Plant response rating, Barnyardgrass
Method in brief: as §2

[12] = tested on: rice (Oryza sativa); experiment: Test B flooded paddy test; assay type: in vivo; settings: Oryza sativa, 360 h; 250 g ai/ha, Flood; visual rating on scale of 0 to 100 where 0 is no effect and 100 is complete control; 13 to 15 d after treatment; read-out: Plant response rating, Rice
Method in brief: as §2

[13] = tested on: KCHSC, kochia (Kochia scoparia); experiment: Test F mixtures with commercial herbicides, Post- or Pre-emergence; assay type: in vivo
Method: (§3) This test evaluated the effect of mixtures of Compound 1 or Compound 2 with various commercial herbicides on multiple plant species. Seeds of multiple plant species selected were planted into Sandy Loam soil and treated either Post-emergence or Pre-emergence with test chemicals formulated in a non-phytotoxic solvent mixture. Plants were grown in a greenhouse using supplemental lighting to maintain a photoperiod of approximately 16 h; daytime and nighttime temperatures were approximately 24-30 and 19-21° C., respectively. Balanced fertilizer was applied through the watering system. Treated plants and controls were maintained in a greenhouse for 20 d, after which time all species were compared to controls and visually evaluated. Plant response ratings summarized in Tables F1 through F4 and are based on a scale of 0 to 100 where 0 is no effect and 100 is complete control. A dash (-) response means no test result. Application rates (i.e. “Rate”) are expressed in grams of active ingredient per hectare (g a.i./ha). In the following tables KCHSC is kochia (Kochia scoparia), LOLMU in Italian Ryegrass (Lolium multiflorum), AMBEL is common ragweed (Ambrosia elatior), ECHCG is barnyardgrass (Echinochloa crus-galli), SETVI is giant foxtail (Setaria faberii), AMARE is redroot pigweed (Amaranthus retroflexus), ALOMY is blackgrass (Alopecurus myosuroides) and GALAP is galium (Galium aparine). “Obsd.” is observed effect. “Exp.” is expected effect calculated from Colby's Equation.
(§4) Colby's Equation was used to determine the herbicidal effects expected from the mixtures. Colby's Equation (Colby, S. R. “Calculating Synergistic and Antagonistic Responses of Herbicide Combinations,” Weeds, 15(1), pp 20-22 (1967)) calculates the expected additive effect of herbicidal mixtures, and for two active ingredients is of the form: Pa+b=Pa+Pb−(PaPb/100)
(§5) wherein Pa+b is the percentage effect of the mixture expected from additive contribution of the individual components:
(§6) Pa is the observed percentage effect of the first active ingredient at the same use rate as in the mixture, and
(§7) Pb is the observed percentage effect of the second active ingredient at the same use rate as in the mixture.

[14] = tested on: LOLMU, Italian Ryegrass (Lolium multiflorum); experiment: as above; assay type: in vivo
Method: as §3, §4, §5, §6, §7

[15] = tested on: SETVI, giant foxtail (Setaria faberii); experiment: as above; assay type: in vivo
Method: as §3, §4, §5, §6, §7

[16] = tested on: ECHCG, barnyardgrass (Echinochloa crus-galli); experiment: as above; assay type: in vivo
Method: as §3, §4, §5, §6, §7

[17] = tested on: AMBEL, common ragweed (Ambrosia elatior); experiment: as above; assay type: in vivo
Method: as §3, §4, §5, §6, §7

[18] = tested on: ALOMY, blackgrass (Alopecurus myosuroides); experiment: as above; assay type: in vivo; settings: Post-emergence, scale 0-100
Method: as §3, §4, §5, §6, §7

[19] = tested on: GALAP, galium (Galium aparine); experiment: as above; assay type: in vivo; settings: Post-emergence, scale 0-100
Method: as §3, §4, §5, §6, §7

[20] = tested on: AMARE, redroot pigweed (Amaranthus retroflexus); experiment: as above; assay type: in vivo
Method: as §3, §4, §5, §6, §7

[21] = Post-emergence, Rate 4 g a.i./ha, scale 0-100
[22] = Post-emergence, Rate 16 g a.i./ha, scale 0-100
[23] = Pre-emergence, Rate 4 g a.i./ha, applied alone, 20 d, scale 0 to 100
[24] = Pre-emergence, Rate 16 g a.i./ha, applied alone, 20 d, scale 0 to 100

With `Cc1cc(C)c2c(-c3c(O)c(C)nn(C)c3=O)c(C)sc2c1` [Compound 3, 5-hydroxy-2,6-dimethyl-4-(2,4,6-trimethylbenzo[b]thien-3-yl)-3(2H)-pyridazinone] the melting point was 224 to 227 °C, the pest or weed control at 1000 g/ha ([1]; post-emergence, Postemergence, 0 is no effect, 100 is complete control, read-out: Pigweed plant response rating) was 0% and the pest or weed control at 1000 g/ha ([1]; pre-emergence, Preemergence, 0 no effect, 100 complete control, read-out: Plant response rating, Pigweed) was 0%. For the same molecule, the pest or weed control at 1000 g/ha ([2]; post-emergence, Postemergence, 0 is no effect, 100 is complete control, read-out: Foxtail, Giant plant response rating) was 10%, the pest or weed control at 1000 g/ha ([2]; pre-emergence, Preemergence, 0 no effect, 100 complete control, read-out: Plant response rating, Foxtail, Giant) was 60% and the pest or weed control at 1000 g/ha ([3]; post-emergence, Postemergence, 0 is no effect, 100 is complete control, read-out: Barnyardgrass plant response rating) was 50%. For the same molecule, the pest or weed control at 1000 g/ha ([3]; pre-emergence, Preemergence, 0 no effect, 100 complete control, read-out: Plant response rating, Barnyardgrass) was 80%, the pest or weed control at 1000 g/ha ([4]; post-emergence, Postemergence, 0 is no effect, 100 is complete control, read-out: Crabgrass, Large plant response rating) was 10% and the pest or weed control at 1000 g/ha ([4]; pre-emergence, Preemergence, 0 no effect, 100 complete control, read-out: Plant response rating, Crabgrass, Large) was 80%. It also gave a pest or weed control at 1000 g/ha ([5]; post-emergence, Postemergence, 0 is no effect, 100 is complete control, read-out: Morningglory plant response rating) of 90%, a pest or weed control at 1000 g/ha ([5]; pre-emergence, Preemergence, 0 no effect, 100 complete control, read-out: Plant response rating, Morningglory) of 80% and a pest or weed control at 1000 g/ha ([6]; post-emergence, Postemergence, 0 is no effect, 100 is complete control, read-out: Velvetleaf plant response rating) of 70%. The pest or weed control at 1000 g/ha ([6]; pre-emergence, Preemergence, 0 no effect, 100 complete control, read-out: Plant response rating, Velvetleaf) was 70%, the plant injury at 1000 g/ha ([7]; post-emergence, Postemergence, 0 is no effect, 100 is complete control, read-out: Wheat plant response rating) was 0% and the plant injury at 1000 g/ha ([7]; pre-emergence, Preemergence, 0 no effect, 100 complete control, read-out: Plant response rating, Wheat) was 0%. The plant injury at 1000 g/ha ([8]; post-emergence, Postemergence, 0 is no effect, 100 is complete control, read-out: Corn plant response rating) was 0%, the Corn plant response rating (crop injury, 0 = no effect, 100 = complete kill) at 1000 g/ha ([8]; pre-emergence, Preemergence, 0 no effect, 100 complete control) was 0% and the pest or weed control at 250 g/ha [9] was 0%. The pest or weed control at 250 g/ha [10] was 20%, the pest or weed control at 250 g/ha [11] was 0% and the plant injury at 250 g/ha [12] was 0%.
In the case of `CS(=O)(=O)c1ccc(C(=O)C2C(=O)CCCC2=O)c([N+](=O)[O-])c1` [mesotrione], the “KCHSC Obsd.” value [13, 21] is reported as 0.0, the “KCHSC Obsd.” value [13, 22] is reported as 90.0 and the “KCHSC Obsd.” value [13, 23] is reported as 0. For the same molecule, the “KCHSC Obsd.” value [13, 24] was 50, the “LOLMU Obsd.” value [14, 21] was 0.0 and the “LOLMU Obsd.” value [14, 22] was 0.0. For the same molecule, the “LOLMU Obsd.” value [14, 23] was 0, the “LOLMU Obsd.” value [14, 24] was 0 and the “SETVI Obsd.” value [15, 21] was 0.0. The “SETVI Obsd.” value [15, 22] was 0.0, the “SETVI Obsd.” value [15, 23] was 0 and the “SETVI Obsd.” value [15, 24] was 0. For the same molecule, the “ECHCG Obsd.” value [16, 21] was 0.0, the “ECHCG Obsd.” value [16, 22] was 20.0 and the “ECHCG Obsd.” value [16, 23] was 0. For the same molecule, the “ECHCG Obsd.” value [16, 24] was 0, the “AMBEL Obsd.” value [17, 21] was 0.0 and the “AMBEL Obsd.” value [17, 22] was 75.0. The “AMBEL Obsd.” value [17, 23] was 0, the “AMBEL Obsd.” value [17, 24] was 30 and the “ALOMY Obsd.” value ([18]; Rate 4 g a.i./ha) was 0.0. The “ALOMY Obsd.” value ([18]; Rate 16 g a.i./ha) was 0.0, the “GALAP Obsd.” value ([19]; Rate 4 g a.i./ha) was 0.0 and the “GALAP Obsd.” value ([19]; Rate 16 g a.i./ha) was 35.0. For the same molecule, the “AMARE Obsd.” value [20, 21] was 0.0, the “AMARE Obsd.” value [20, 22] was 30.0 and the “AMARE Obsd.” value [20, 23] was 0. For the same molecule, the “AMARE Obsd.” value [20, 24] was 20.
